{
  "source": "patent US20040176274A1",
  "about": "“Analgesic methods using endothelin receptor ligands” (priority 2001, published 2004)",
  "key": {"[1]": {"system": "ET-1-induced pain in the rat plantar hindpaw", "type": "in vivo", "description": "These examples are provided to illustrate the invention and should not be construed as limiting. ETA and ETB Receptors Mediate ET-1-induced Pain in the Rat Plantar Hindpaw An ET-1 animal model of acute pain was used to investigate the signaling pathways involved in endothelin receptor-mediated nociception. In this model system, acute pain was induced under sevoflurane anesthesia by subcutaneous ET-1 injection into the rat plantar hindpaw after 40 seconds of limb cooling. Injections were given either as a single 20 μl bolus for single compound or co-administration studies, or as two 10 μl injections separated by 1-2 minutes for pre-treatment studies, and were delivered into the mid plantar paw approximately 1 cm distal to the heel. Repetitive and spontaneous flinching of the ipsilateral hindpaw were counted in 5 minute blocks, beginning 5 minutes after ET-1 injection, for 75 minutes. […] Data was reported as the mean±s.e.m."}, "[2]": {"system": "cultured adult human primary keratinocytes", "test": "β-endorphin release from cultured keratinocytes (radioimmunoassay)", "type": "cell-based", "method": "Cultured adult human primary keratinocytes, obtained during facelift procedures, were used to confirm that keratinocytes are the source of the extracellular β-endorphin that mediates ETB receptor-induced analgesia. Cultured keratinocytes were transferred to PBS and incubated in the presence of either 10 or 200 nM IRL-1620 for thirty or sixty minutes. Subsequently, the β-endorphin concentration in the PBS was measured by radioimmunoassay. In the absence of IRL-1620, the basal level of β-endorphin was 1.76±0.08 μg/ml. […] The intracellular concentration of β-endorphin in similarly treated cultured keratinocytes was 108±48 pg β-endorphin per 10^5 cells."}, "sciatic nerve C-fibers": {"system": "sciatic nerve C-fibers", "test": "Electrophysiological recording of spike activity in nociceptive C-fibers after plantar hindpaw injection", "type": "in vivo, rat", "conditions": "ET-1 2 nmoles, IRL-1620 2 nmoles; s.c. plantar hindpaw injection", "description": "FIG. 5 is a representative series of electrophysiological recordings of C-fiber activity following subcutaneous plantar hindpaw injections of (A) ET-1 alone, (B) ET-1 and IRL-1620, and (C) ET-1, IRL-1620, and naloxone. The arrow in (A) indicates the time of ET-1 injection. The first and second arrows in (B) indicate the time of IRL-1620 and IRL-1620/ET-1 injections, respectively. The first and second arrows in (C) indicate the time of IRL-1620/naloxone and ET-1/IRL-1620/naloxone injections, respectively.\nIn order to confirm that ETB receptor activation inhibits the ET-1-induced pain response and that the inhibition is mediated through an opioid-sensitive mechanism, the spike response of IRL-1620 alone, and in combination with naloxone, were studied in nociceptive C-fibers. Spike activity was recorded in sciatic nerve C-fibers from twelve animals following subcutaneous plantar hindpaw injections of ET-1. The mean and maximum response frequencies following injection of ET-1 alone (2 nmoles) are 0.32±0.07 imp/s and 4.17+0.17 imp/s, respectively."}, "GIRK2 knockout mice": {"system": "GIRK2 knockout mice", "test": "ET-1 pain behavior (biting and licking) in GIRK2 knockout mice", "type": "in vivo", "conditions": "ET-1 100 pmol s.c. mouse plantar hindpaw, 30 minutes", "method": "(§1) The duration of biting and licking events was used as a measure of pain responsiveness following subcutaneous administration of ET-1(100 pmol) into the mouse plantar hindpaw. The duration of these events was assessed in five minute periods for 30 minutes after ET-1 injection."}, "wild-type control mice": {"system": "wild-type control mice", "test": "ET-1 pain behavior (biting and licking) in wild-type control mice", "type": "in vivo", "conditions": "ET-1 100 pmol s.c. mouse plantar hindpaw, 30 minutes", "method": "as §1"}, "[3]": {"conditions": "entire 75 minute observation period, dosages ET-1 2 nmol, BQ-788 60 nmol, IRL-1620 2 nmol, naloxone 55 nmol, tertiapin 20 pmol, mean ± s.e.m."}, "[4]": {"conditions": "without ET-1, BQ-788 60 nmol bolus or 2 x 30 nmol, naloxone 55 nmol, tertiapin 20 pmol"}, "[5]": {"conditions": "s.c. rat plantar hindpaw, dosages ET-1 2 nmol, BQ-788 60 nmol, IRL-1620 2 nmol, naloxone 55 nmol, tertiapin 20 pmol, mean ± s.e.m."}, "[6]": {"conditions": "0.5 μg CL prior to ET-1 (2 nmol), 75 minute observation period, ET-1 line = control"}, "[7]": {"conditions": "0.5 μg CL s.c. two minutes prior to ET-1 (2 nmol), ET-1 line = control"}, "[8]": {"conditions": "0.5 μg CL, or equal volume of water (ET-1 + IRL-1620 line), prior to co-administration of ET-1 (2 nmol) and IRL-1620 (2 nmol)"}, "[9]": {"conditions": "IRL-1620 4 nmol, alone or prior and co-administered with ET-1 2 nmol"}, "[10]": {"conditions": "CTOP 18.8 nmoles co-injected with ET-1 and IRL-1620"}, "[11]": {"conditions": "ET-1 4 nmol, s.c. rat plantar hindpaw"}, "[12]": {"conditions": "ET-1 6 nmol, s.c. rat plantar hindpaw"}},
  "note": "Several values for one entry are separate records, joined by “and”; a condition that tells them apart may be missing. Equal entries are not always repeated. Where two headings read alike, the source gives them in different places. *1 amine or outer side, *2 acyl side, *3 side chain or, on linkers, in order; H or OH if unused. Where no end group is shown, it is not given here. Suc = O=C(CCC(=O)[*:2])[*:1]",
  "data": [
    {"compound": "Ala-Leu-Cys-Asn-Cys-Asn-Arg-Ile-Ile-Ile-Pro-His-Met-Cys-Trp-Lys-Lys-Cys-Gly-Lys-Lys (ALCNCNRIIIPHMCWKKCGKK) [Tertiapin, GIRK channel antagonist]", "values": [
      {"measurement": "Total Number of Flinches", "setting": "[1]; [3]", "value": "17 ± 6", "unit": "flinches"},
      {"measurement": "flinching behavior when administered alone compared to PBS control", "setting": "[1]; [4]", "value": "did not induce flinching behavior that was different from naloxone or PBS control"}
    ]},
    {"compound": "CCCC[C@@H](NC(=O)[C@@H](Cc1cn(C(=O)OC)c2ccccc12)NC(=O)[C@H](CC(C)(C)C)NC(=O)N1[C@H](C)CCC[C@@H]1C)C(=O)O", "note": "(relative stereo) [BQ-788, N-cis-2,6-dimethylpiperidinocarbonyl-L-gamma-methylleucyl-D-1-methoxycarbonyltryptophanyl-D-Nle]", "values": [
      {"measurement": "Total Number of Flinches", "setting": "[1]; [3]", "value": "17.3 ± 2.3", "unit": "flinches"},
      {"measurement": "MFF (maximal flinch frequency)", "setting": "[1]; [5]", "value": "5.8 ± 0.9", "unit": "flinches per 5 minutes"},
      {"measurement": "Time to MFF", "setting": "[1]; [5]", "value": "32.5 ± 10.2", "unit": "min"},
      {"measurement": "flinching behavior when administered alone compared to PBS control", "setting": "[1]; [4]", "value": "did not result in altered flinching behaviors"}
    ]},
    {"compound": "C=CCN1CC[C@]23c4c5ccc(O)c4O[C@H]2C(=O)CC[C@@]3(O)[C@H]1C5", "note": "[Naloxone, naloxone]", "values": [
      {"measurement": "Total Number of Flinches", "setting": "[1]; [3]", "value": "16.1 ± 4.1", "unit": "flinches"},
      {"measurement": "MFF (maximal flinch frequency)", "setting": "[1]; [5]", "value": "3.3 ± 0.8", "unit": "flinches per 5 minutes"},
      {"measurement": "Time to MFF", "setting": "[1]; [5]", "value": "28.6 ± 5.6", "unit": "min"},
      {"measurement": "flinching behavior when administered alone compared to PBS control", "setting": "[1]; [4]", "value": "did not induce flinching behavior that was different from PBS control"}
    ]},
    {"compound": "COc1ccc2c(c[n+](C)c3c4cc5c(cc4ccc23)OCO5)c1OC", "note": "[CL, Chelerythrine chloride]", "values": [
      {"measurement": "Total Number of Flinches", "setting": "[1]; [6]", "value": "253±7"},
      {"measurement": "MFF (maximal flinch frequency)", "setting": "[1]; [7]", "value": "46±3", "unit": "flinches per five minutes"},
      {"measurement": "MFF (maximal flinch frequency)", "setting": "[1]; [8]", "value": "39±3", "unit": "flinches per five minutes"},
      {"measurement": "total flinches", "setting": "[1]; [8]", "value": "207±10"},
      {"measurement": "toxicity", "setting": "[1]; 0.8 μg CL s.c. rat plantar hindpaw", "value": "showed signs of toxicity"}
    ]},
    {"compound": "Suc-Asp-Glu-Glu-Ala-Val-Tyr-Phe-Ala-His-Leu-Asp-Ile-Ile-Trp (Suc-DEEAVYFAHLDIIW) [IRL-1620, ETB receptor agonist]", "values": [
      {"measurement": "flinching behavior when administered alone compared to PBS control", "setting": "[1]; IRL-1620 4 nmol alone", "value": "small but significant increase in flinching behavior"},
      {"measurement": "MFF (maximal flinch frequency)", "setting": "[1]; [9]", "value": "4.7 ± 0.6", "unit": "flinches per 5 minutes"},
      {"measurement": "Time to MFF", "setting": "[1]; [9]", "value": "33.3 ± 6.1", "unit": "min"},
      {"measurement": "Total Number of Flinches", "setting": "[1]; IRL-1620 4 nmol, alone or with ET-1 2 nmol, 75 minutes", "value": "22.1 ± 3.1", "unit": "flinches"},
      {"measurement": "change in extracellular β-endorphin", "setting": "[2]; 10 nM IRL-1620, 60 minute incubation", "value": "did not result in a significant change"},
      {"measurement": "extracellular β-endorphin concentration", "setting": "[2]; 200 nM IRL-1620 in PBS, basal level 1.76±0.08 μg/ml", "value": "10.5 ± 3", "unit": "µg/mL"},
      {"measurement": "increase in extracellular β-endorphin", "setting": "[2]; 200 nM IRL-1620 versus basal", "value": 5, "unit": "fold"},
      {"measurement": "intracellular concentration of β-endorphin", "setting": "[2]; similarly treated cultured keratinocytes", "value": "108±48 pg β-endorphin per 10^5 cells"}
    ]},
    {"compound": "CTOP", "values": [
      {"measurement": "MFF (maximal flinch frequency)", "setting": "[1]; [10]", "value": "31±4", "unit": "flinches/5 minutes"},
      {"measurement": "effect on IRL-1620 analgesia", "setting": "[1]; [10]", "value": "blocked the analgesic effects of IRL-1620"}
    ]},
    {"compound": "Oc1ccc2c3c1O[C@H]1c4[nH]c5c(c4C[C@@]4(O)[C@@H](C2)N(CC2CC2)CC[C@]314)C[C@@]1(O)[C@H]2Cc3ccc(O)c4c3[C@@]1(CCN2CC1CC1)[C@H]5O4", "note": "[nor-BNI]", "values": [
      {"measurement": "effect on flinching caused by ET-1 administration alone", "setting": "[1]; nor-BNI 3.4 mM", "value": "partially enhanced the flinching"}
    ]},
    {"compound": "Oc1ccc2c3c1O[C@H]1c4[nH]c5ccccc5c4C[C@@]4(O)[C@@H](C2)N(CC2CC2)CC[C@]314", "note": "[naltrindole]", "values": [
      {"measurement": "effect on flinching behavior", "setting": "[1]; naltrindole with ET-1 alone or the ET-1/IRL-1620 combination", "value": "did not affect flinching behavior"}
    ]},
    {"compound": "Cys-Ser-Cys-Ser-Ser-Leu-Met-Asp-Lys-Glu-Cys-Val-Tyr-Phe-Cys-His-Leu-Asp-Ile-Ile-Trp [ET-1]", "values": [
      {"measurement": "Total Number of Flinches", "setting": "[1]; [6]", "value": "153±11"},
      {"measurement": "MFF (maximal flinch frequency)", "setting": "[1]; [7]", "value": "27±2", "unit": "flinches per five minutes"},
      {"measurement": "flinching behavior returning to baseline", "setting": "[1]; ET-1 4 nmol", "value": "≤ 75", "unit": "min"},
      {"measurement": "start of flinching after injection", "setting": "[1]; ET-1 4 nmol", "value": "10 to 20", "unit": "min"},
      {"measurement": "animals with evoked ipsilateral hindpaw flinching", "setting": "[1]; ET-1 4 nmol, n=12", "value": 100, "unit": "%"},
      {"measurement": "MFF (maximal flinch frequency)", "setting": "[1]; [11]", "value": "40.2±3.9", "unit": "flinches per 5 minutes"},
      {"measurement": "Time to MFF", "setting": "[1]; [11]", "value": "40.8 ± 2.8", "unit": "min"},
      {"measurement": "Total Number of Flinches", "setting": "[1]; ET-1 4 nmol, entire 75 minute observation period", "value": "178.5±29.1", "unit": "flinches"},
      {"measurement": "MFF (maximal flinch frequency)", "setting": "[1]; [12]", "value": "41.9±8.7", "unit": "flinches per 5 minutes"},
      {"measurement": "Time to MFF", "setting": "[1]; [12]", "value": "22.5 ± 4.1", "unit": "min"},
      {"measurement": "Total Number of Flinches", "setting": "[1]; ET-1 6 nmol, entire 75 minute observation period", "value": "253.3 ± 66.2", "unit": "flinches"},
      {"measurement": "MFF (maximal flinch frequency)", "setting": "[1]; [5]", "value": "23.8±1.9 flinches per 5 minutes and 24±2 flinches per 5 minutes"},
      {"measurement": "maximum response frequency of C-fiber spike activity", "setting": "sciatic nerve C-fibers", "value": "4.17 ± 0.17", "unit": "imp/s"},
      {"measurement": "mean response frequency of C-fiber spike activity", "setting": "sciatic nerve C-fibers", "value": "0.32±0.07", "unit": "imp/s"},
      {"measurement": "total duration of biting and licking behavior", "setting": "GIRK2 knockout mice", "value": "218 ± 18", "unit": "s"},
      {"measurement": "total duration of biting and licking behavior", "setting": "wild-type control mice", "value": "152 ± 18", "unit": "s"}
    ]}
  ]
}
